Experimental findings from patent publication US5349127A, “Expression of herbicide metabolizing cytochromes P450” (priority 1992, dated 1994) are described below.

The subject of data set [1] is S. lividans pCAO200SU1-FeS-B#9. Description: Percent conversion of herbicides by cultures (Example 16). It is filed as in vitro ADME, Streptomyces lividans. Conditions: 3.0 mg herbicide in 25 ml broth; 24 hours. As to the method: (§1) Separate cultures (50 ml) inoculated with S. lividans C37, S. lividans transformed with pCAO200SU1-FeS-B#9, S. griseolus ATCC11796, S. griseolus PH2003 transformed with pIJ425, or S. ariseolus PH2003 transformed with pCS325 were cultured in sporulation broth for 18 hours at 30° C. with shaking. Each culture was then resuspended in 25 ml fresh sporulation broth and 3.0 mg herbicide added. In the case of cultures of S. griseolus ATCC11796, a second culture containing herbicide and 3.0 mg 10001 was also prepared. Each culture was reincubated for 24 hours, then an aliquot of the medium was withdrawn and analyzed by HPLC. The percent conversion of herbicide was determined.

Data set [2] concerns S. lividans C37. The description is as above. Format: in vitro ADME, Streptomyces lividans. Conditions: 3.0 mg herbicide in 25 ml broth; 24 hours. As to the method:
as §1

Data set [3] deals with transformed tobacco seedlings. Description: Growth of transformed tobacco seed on medium with 10001 (Example 24). Format: in vivo, Nicotiana tabacum. Conditions: AGS502 (no P450 gene), 100 days. On the procedure:
Tobacco seed from plants transformed with several P450SU1 and P450SU1+FeS-Bconstructions were tested for their ability to grow on tissue culture medium supplemented with compound 10001. Seed was placed on medium containing: 0, 5, 10, 20, and 40 nM of compound 10001. After 100 days, the plants were visually rated for their resistance (due to herbicide detoxification) to the herbicide treatment. All plants grown in the absence of herbicide and those treated with the lowest levels (5 nM and 10 nM) of 10001 had grown so large that no comparative rating was possible. The severely growth inhibited plants (those grown in the presence of 20 nM and 40 nM of compound 10001) were scored by comparing them to AGS502 plants (transformed without P450 gene) in Table 23.
SCORING SYSTEM: Visual comparison to AGS502 plants which uniformly appeared:
Ratings: 0=essentially identical to AGS 502 controls; 1=marginally larger ([…]1.2×) than AGS502; 2=clearly larger (1.2 to 2×) than AGS502; 3=substantially larger (>2×) than AGS502.

For data set [4], the system named is S. griseolus PH2003 pCS325. Kind of data set: Percent conversion of herbicides by cultures (Example 16). It is filed as in vitro ADME, Streptomyces griseolus. Conditions: 3.0 mg herbicide in 25 ml broth; 24 hours.
Data set [5] deals with S. lividans pCAO200SU2-FeS-A#11. Kind of data set: Sulfonylurea metabolism by washed cell suspension (Examples 11-12). It is filed as in vitro ADME, Streptomyces lividans. Conditions: for concentration in supernatant: substrate 10010.
The subject of data set [6] is S. griseolus ATCC11796. Kind of data set: Metabolism of 10015 analogs to 10014 (Example 17). Format: in vitro ADME, Streptomyces griseolus. As to the method:
Cultures of S. griseolus ATCC11796 were cultivated in sporulation-broth (50ml) at 30° C. with shaking for 17 hours. Each culture was then resuspended in 25 ml fresh sporulation broth, 3.0 mg sulfonylurea was added, and the culture reincubated for 4 days. Aliquots of the medium were then analyzed by HPLC. Formation of 10014 was measured based on similarity of retention time and UV spectrum of the test metabolite to that formed by metabolism of 10015.

Data set [7] has as its system transformed tobacco seedlings. Description: Tissue culture growth of transformed tobacco seed on 50 nM 10015 (Examples 22-23). It is filed as in vivo, Nicotiana tabacum. On the procedure: Growth medium was prepared from Murishige minimal organics medium (Gibco Laboratories, Grand Island, N.Y.), 8 g/l agar, supplemented with T vitamins (50 ppb biotin, 0.5 ppm pyridoxine HCl, 0.5 ppm thiamine HCl, 5 ppm nicotinic acid, 0.5 ppm folic acid, 2 ppm glycine, 100 ppm myo-inositol), sterilized and placed into sterile PlantCon plant tissue culture containers (Flow Laboratories, McLean, Va.). Tobacco seed obtained from the self-pollination of the primary transformants was surface sterilized by a treatment of not more than 30 min in 20% chlorine bleach, 0.1% sodium dodecyl sulfate, followed by rinsing in distilled water, and placed on the surface of the medium in the sterile containers. Following this treatment, the seed was allowed to germinate and grow under illumination (100 microeinsteins·m^-2 ·s^-1), at 22° C.
Because of the increased phytotoxicity of 10014 over that of 10015, plants grown in media containing 10015 should be growth inhibited if they contain an active cytochrome P450SU1. To test this, seeds of tobacco were grown in tissue culture media supplemented with 50 nM compound 10015, and the results are shown in Table 20.
This technique was used to analyze the progeny of plants transformed with both the gene for SU1 and FeS-B, and the results are shown in Table 21.
Plants transformed With the plasmids pSuFe31 and pSuFe41 were selected for high expression of P450SU1 and FeS-B mRNA by primer extension analysis as described in Example 19, and self pollinated to produce seed. This seed was germinated on medium containing 50 nM of compound 10015 and analyzed for sensitivity to this compound (indicating the presence of an active cytochrome P450SU1 enzyme) as in Example 22.

Consider `CCOC(=O)c1ccccc1S(=O)(=O)NC(=O)Nc1nc(Cl)cc(OC)n1` [compound 10001, N-[(4-chloro-6-methoxy-pyrimidin-2-yl)aminocarbonyl]-2-ethoxycarbonylbenzenesulfonamide], for which the “Percent Conversion” value in data set [1] was 56%; in data set [2], 0%; in data set [4], 100%. Further, the “appearance of AGS502 plants” value in data set [3] (10001 20 nM) is reported as ~1 cm tall, 6 leaves ~1 cm diameter; in data set [3] (10001 40 nM) it was ~0.5 cm tall, 6 leaves ~0.3 cm diameter, chlorotic.
Turning to `COC(=O)c1ccccc1S(=O)(=O)NC(=O)Nc1nc(C)cc(C)n1` [compound 10010, N-[(4,6-dimethylpyrimidin-2-yl)aminocarbonyl]-2-methoxycarbonylbenzenesulfonamide], the figures for the concentration in supernatant in data set [5] (2 h), in data set [5] (4 h) and in data set [5] (6 h) were 90 µM, 84 µM and 72 µM, respectively. In addition, in data set [5] (summary of Example 12), the “metabolism compared with uninduced S. griseolus PH2001” value is “more readily than uninduced S. griseolus PH2001”.
As for `COc1cc(OC)nc(NC(=O)NS(=O)(=O)c2cccc3c2S(=O)(=O)N(C(C)C)C3)n1` [compound 10015], the “metabolism by P450SU1 to phytotoxic 10014” value in data set [6] is given as “metabolized”. The “Compound 10015 Sensitive (plants demonstrating result/total plants)” value was 0/9 in data set [7] (AGS502 (Control)); 7/9 in data set [7] (SuFe21.2); 8/9 in data set [7] (SuFe21.5); 7/9 in data set [7] (SuFe21.6); 5/7 in data set [7] (SuFe21.7); 10/10 in data set [7] (SuFe21.8). The “Compound 10015 Sensitive (plants demonstrating result/total plants)” value was 2/9 in data set [7] (SuFell.1); 0/9 in data set [7] (SuFell.11); 0/8 in data set [7] (SuFell.3); 0/10 in data set [7] (SuFell.4); 0/9 in data set [7] (SuFell.7); 1/10 in data set [7] (SuFell.8). In addition, the “Number 10015 Resistant” value in data set [7] (AGS502 (Control)) is 32; in data set [7] (SuFe31.13) it was 4; in data set [7] (SuFe31.28), 5; in data set [7] (SuFe41.34) it was 32; in data set [7] (SuFe41.37), 8; in data set [7] (SuFe41.56), 32. Moreover, the “Number 10015 Resistant” value in data set [7] (SuFe41.60) was found to be 15. Further, the “Number 10015 Sensitive” value in data set [7] (AGS502 (Control)) was 0; in data set [7] (SuFe31.13), 12; in data set [7] (SuFe31.28), 10; in data set [7] (SuFe41.34) it was 0; in data set [7] (SuFe41.37), 24; in data set [7] (SuFe41.56) it was 0. Also, the “Number 10015 Sensitive” value in data set [7] (SuFe41.60) was 0. The “Ratio Sensitive/Resistant” value in data set [7] (AGS502 (Control)) is 0; in data set [7] (SuFe31.13), 3.0; in data set [7] (SuFe31.28) it was 2.0; in data set [7] (SuFe41.34), 0; in data set [7] (SuFe41.37), 3.0; in data set [7] (SuFe41.56) it was 0. The “Ratio Sensitive/Resistant” value in data set [7] (SuFe41.60) was found to be 0.
